Data published in patent US20240293588A1, “THERAPEUTIC CONJUGATES” (Starpharma Pty Ltd, priority 2020, published 2024).
Each block holds one molecule with its values, some of them ahead of it.

Key:
NCI-N87 cells = assay: GI50 panel (MTT assay), NCI-N87; assay type: cell-based; conditions: Homo sapiens, NCI-N87, 72 h
SK-Br-3 cells = assay: GI50 panel (MTT assay), SK-BR-3; assay type: cell-based; conditions: Homo sapiens, SK-BR-3, 72 h
MDA-MB-231 cells = assay: GI50 panel (MTT assay), MDA-MB-231; assay type: cell-based; conditions: Homo sapiens, MDA-MB-231, 72 h
OE-19 cells = assay: GI50 panel (MTT assay), OE19; assay type: cell-based; conditions: Homo sapiens, OE19, 72 h
SKOV-3 cells = assay: GI50 panel (MTT assay), SKOV-3; assay type: cell-based; conditions: Homo sapiens, SK-OV-3, 72 h
[1] = target: T1, HER2 (human epidermal growth factor receptor 2) on cells (human, UniProt P04626 23-1255); assay: flow cytometry (Cy5), MDA-MB-231/HER2 cells, 24 h
T1 construct: whole, on cells; also called ERBB2; HER2 receptor

[2] = target: T1, HER2 (human epidermal growth factor …); assay: flow cytometry (Cy5), SKOV-3 cells, 24 h

Molecule: CS(=O)(=O)CCNCc1ccc(-c2ccc3ncnc(Nc4ccc(OCc5cccc(F)c5)c(Cl)c4)c3c2)o1 [Lapatinib, reference compound]
GI50 (NCI-N87 cells): 0.0081 µM
GI50 (SK-Br-3 cells): 0.138 µM
GI50 (MDA-MB-231 cells): 112 µM
GI50 (OE-19 cells): 0.2 µM
GI50 (SKOV-3 cells): 7.2 µM

fold fluorescence over Compound 71 (untargeted control) [1]: ~9 fold
fold fluorescence over Compound 71 (untargeted control) [2]: ~16 fold
B1: Nanobody*-N3/DBCO-NHCO-PEG12TCO/(MeTzPh)PEG4CO-NHPEG24CO-[N(PN)2][Lys]2[Lys]4[Lys]8[((α-NHCy5)1(α-NHGlu-VC-PAB-MMAE)7)(ε-NH-COPEG1100)8], Compound 123 (VHH)
VHH: EVQLVESGGSLVQPGGSLRLSCAASGFTFDDYAMSWVRQVPGKGLEWVSSINWSGTHTDYADSVKGRFTISRNNANNTLYLQMNSLKSEDTAVYYCAKNWRDAGTTWFEKSGSAGQGTQVTVSS
modifications: C-terminal # (unnatural amino acid, p-azido-phenylalanine) clicked to DBCO-NHCO-PEG12-TCO, joined to the tetrazine at the core of the G3 lysine dendrimer (1 Cy5, 7 Glu-VC-PAB-MMAE, 8 PEG1100)
notes: T0004 r280 names the protein Nanobody*; No synthesis paragraph for this compound; also called 2D3 nanobody targeted dendrimer
